{"source": "patent US12251465B2", "about": "“Dosage form comprising structured solid-solution framework of sparingly-soluble drug and method for manufacture thereof” (priority 2018, dated 2025)", "assay": "Solubility of drug in the dissolution fluid and excipient-fluid solutions (UV absorption)", "type": "physicochemical", "settings": "37° C.", "experimental": "For determining the solubility of drug in the dissolution fluid, 1 mg ibuprofen particles were put in a UV cuvette. The cuvette was then filled with 2.5 ml of the dissolution fluid (0.1 M HCl in deionized water at 37° C.). The concentration of dissolved drug was monitored by UV absorption using a Perkin Elmer Lambda 1050 Spectrophotometer. Between measurements, the cuvette was flipped at a frequency of 0.5 Hz to stir the solution. The temperature of the solution in the cuvette was maintained at 37° C., during the experiment. When the drug concentration in the solution reached its equilibrium value the drug solubility was recorded.\nThe solubility of drug in excipient-dissolution fluid solutions was determined by immersing 1.5 mg of the ibuprofen particles and different amounts (1.5-200 mg) of excipient in 2.5 ml dissolution fluid. The excipient was either HPMC or a mixture of 67 wt % HPMC and 33 wt % polyoxyl stearate. The dissolution fluid was 0.1 M HCl in deionized water.", "key": {"[1]": {"settings": "1 mg ibuprofen particles in 2.5 ml stirred dissolution fluid"}}, "data": [{"compound": "CC(C)Cc1ccc(C(C)C(=O)O)cc1", "note": "(stereo not drawn) [ibuprofen]", "values": [{"measurement": "concentration of dissolved drug at 3000 minutes (50 h)", "setting": "[1]", "result": 40000, "unit": "ng/mL"}, {"measurement": "time to reach the solubility c0", "setting": "[1]", "result": "≤ 15,000 minutes"}, {"measurement": "solubility", "setting": "dissolution fluid (0.1 M HCl in deionized water), simulated gastric fluid, thermodynamic from solid, 0.1 M HCl in deionized water, no excipient, read-out: solubility of ibuprofen in the dissolution fluid, c0", "result": "~50", "unit": "µg/mL"}]}]}
